For the test, the system named is Mouse macrophages. The test can be described thus: Evaluation of reactive nitrogen species inhibiting ability (nitric oxide production, Griess reagent, LPS-treated macrophages). To be noted: for Nitrogen oxide concentration, Average / Nitrogen oxide concentration, Once / Nitrogen oxide concentration, Two times / Nitrogen oxide concentration, Three times: LPS 1 µg/ml, cultured 24 hours; for Nitrogen oxide concentration, Average: average of three; for Nitrogen oxide concentration, Once: replicate 1; for Nitrogen oxide concentration, Two times: replicate 2; for Nitrogen oxide concentration, Three times: replicate 3. The test is classed as cell-based. The method, then:
Mouse macrophages were divided into 1X10^6 cells in a 6-well plate and cultured for 24 hours, then treated with LPS (Lipopolysaccharide, concentration 1 µg/ml) solution, and treated with the 3-hydroxypropionic acid aqueous solution according to Preparation Example 1 at four concentrations (3HP concentration: 0 wt.%, 0.0125 wt.%, 0.025 wt.%, 0.05 wt.%), and then cultured again for 24 hours. Only the medium was then separated and centrifuged for 10 minutes to collect only the supernatant. The supernatant was mixed with Griess reagent (Sigma-Aldrich) reagent in a 1:1 ratio and reacted at room temperature, and then the absorbance (OD, wavelength 540 nm) was measured using a microplate reader. The measured value was substituted into the regression equation obtained from the standard curve prepared by reacting Griess reagent (Sigma-Aldrich) and NaNO2 in a 1:1 ratio to calculate the amount of nitric oxide(NO) produced. Here, the case in which neither the LPS solution nor the 3HP aqueous solution was treated was performed as a negative control group.

The structures appear in SMILES notation.

In the case of `O=C(O)CCO` [Example 3HP, 3-hydroxypropionic acid], where the note is “3HP concentration 0.0125 wt.%”, the “Nitrogen oxide concentration, Average” value is reported as 64.949 µM; the “Nitrogen oxide concentration, Once” value is 63.956 µM; the “Nitrogen oxide concentration, Two times” value came to 64.800 µM; the “Nitrogen oxide concentration, Three times” value was determined as 66.093 µM. Further, where the note is “3HP concentration 0.025 wt.%”, the “Nitrogen oxide concentration, Average” value was found to be 64.774 µM; the “Nitrogen oxide concentration, Once” value is 63.138 µM; the “Nitrogen oxide concentration, Two times” value was determined as 65.222 µM; the “Nitrogen oxide concentration, Three times” value stood at 65.961 µM. For the same compound, where the note is “3HP concentration 0.05 wt.%”, the “Nitrogen oxide concentration, Average” value worked out at 56.630 µM; the “Nitrogen oxide concentration, Once” value turned out to be 56.146 µM; the “Nitrogen oxide concentration, Two times” value was determined as 56.357 µM; the “Nitrogen oxide concentration, Three times” value was 57.386 µM. In addition, under “under the treatment concentrations 0.0125 to 0.05 wt.%, result in words”, the “inhibiting the production of reactive nitrogen species” value is “effect of inhibiting the production of reactive nitrogen species was exhibited”.

Values taken from patent publication EP4684784A1, “ANTI-INFLAMMATORY COSMETIC COMPOSITION” (LG Chem, Ltd., priority 2023, dated 2025).
